Data taken from US12338220B2, “Antiviral pyrazolopiridinone compounds” (Novartis AG, priority 2019, dated 2025).
pEC50, pIC50: −log10 of the molar value. Where two headings read alike, the source gives them in different places.

Experiments:
[1] = system: CMV; test: microbe, parasite or virus in culture; format: cell-based; conditions: Human betaherpesvirus 5, 72 h, read-out: CMV-Luc Cellular EC50, NN-NHDF cells, MOI 1, 72 hrs
[2] = target: CMV-polymerase (Human cytomegalovirus (strain AD169) (HHV-5) (Human herpesvirus 5), UniProt P08546); test: biochemical
[3] = read-out: CMV-polymerase Biochemical IC50
[4] = CMV-polymerase Biochemical IC50

SMILES	pEC50 [1]	pIC50 [2, 3]	pIC50 [2, 4]
Cn1nc(C(=O)N[C@@H](CO)c2ccc(Cl)cc2)c2c1C(=O)N(CC1(S(=O)(=O)C3CC3)CC1)CC2 [Example 18, (R)-N-(1-(4-Chlorophenyl)-2-hydroxyethyl)-6-((1-(cyclopropylsulfonyl)cyclopropyl)methyl)-1-methyl-7-oxo-4,5,6,7-tetrahydro-1H-pyrazolo[3,4-c]pyridine-3-carboxamide]	6.52	7.66	–
Cn1nc(C(=O)NCc2ccc(Cl)cc2)c2c1C(=O)N(CC1(S(=O)(=O)C(F)F)CC1)CC2 [Example 39, N-(4-Chlorobenzyl)-6-((1-((difluoromethyl)sulfonyl)cyclopropyl)methyl)-1-methyl-7-oxo-4,5,6,7-tetrahydro-1H-pyrazolo[3,4-c]pyridine-3-carboxamide]	6.42	–	7.60
CC(C)(O)Cn1nc(C(=O)NCc2ccc(Cl)cc2)c2c1C(=O)N(CC1(S(C)(=O)=O)CC1)CC2 [Example 231, N-(4-Chlorobenzyl)-1-(2-hydroxy-2-methylpropyl)-6-((1-(methylsulfonyl)cyclopropyl)methyl)-7-oxo-4,5,6,7-tetrahydro-1H-pyrazolo[3,4-c]pyridine-3-carboxamide]	7.06	8.15	–
Cn1nc(C(=O)NCc2ccc(C#N)c(F)c2)c2c1C(=O)N(CC1(S(=O)(=O)C3CC3)CC1)CC2 [Example 9, N-(4-Cyano-3-fluorobenzyl)-6-((1-(cyclopropylsulfonyl)cyclopropyl)methyl)-1-methyl-7-oxo-4,5,6,7-tetrahydro-1H-pyrazolo[3,4-c]pyridine-3-carboxamide]	7.51	9.00	–
Cn1nc(C(=O)NCc2ccc(C#N)cc2)c2c1C(=O)N(CC1(S(=O)(=O)N3CC[C@@H](N)C3)CC1)CC2 [Example 141, (R)-6-((1-((3-Aminopyrrolidin-1-yl)sulfonyl)cyclopropyl)methyl)-N-(4-cyanobenzyl)-1-methyl-7-oxo-4,5,6,7-tetrahydro-1H-pyrazolo[3,4-c]pyridine-3-carboxamide]	7.29	7.89	–
CC(C)(O)Cn1nc(C(=O)NCc2ccc(C#N)cc2)c2c1C(=O)N(CC1(S(=O)(=O)C(C)(C)CO)CC1)CC2 [Example 235, N-(4-Cyanobenzyl)-6-((1-((1-hydroxy-2-methylpropan-2-yl)sulfonyl)cyclopropyl)methyl)-1-(2-hydroxy-2-methylpropyl)-7-oxo-4,5,6,7-tetrahydro-1H-pyrazolo[3,4-c]pyridine-3-carboxamide]	7.51	9.00	–
Cn1nc(C(=O)NCc2ccc(C#N)cc2)c2c1C(=O)N(CC1(S(=O)(=O)CC(C)(C)O)CC1)CC2 [Example 118, N-(4-Cyanobenzyl)-6-((1-((2-hydroxy-2-methylpropyl)sulfonyl)cyclopropyl)methyl)-1-methyl-7-oxo-4,5,6,7-tetrahydro-1H-pyrazolo[3,4-c]pyridine-3-carboxamide]	6.49	7.72	–
Cn1nc(C(=O)NCc2ccc(Cl)cc2)c2c1C(=O)N(CC1(S(N)(=O)=O)CC1)CC2 [Example 121, N-(4-chlorobenzyl)-1-methyl-7-oxo-6-((1-sulfamoylcyclopropyl)methyl)-4,5,6,7-tetrahydro-1H-pyrazolo[3,4-c]pyridine-3-carboxamide]	6.81	–	8.10
CC(C)(O)Cn1nc(C(=O)NCc2ccc(Cl)cc2)c2c1C(=O)N(CC1(S(=O)(=O)C3CC3)CC1)CC2 [Example 229, N-(4-Chlorobenzyl)-6-((1-(cyclopropylsulfonyl)cyclopropyl)methyl)-1-(2-hydroxy-2-methylpropyl)-7-oxo-4,5,6,7-tetrahydro-1H-pyrazolo[3,4-c]pyridine-3-carboxamide]	7.70	–	9.00
CCS(=O)(=O)C1(CN2CCc3c(C(=O)NCc4ccc(C#N)cc4)nn(CC(C)(C)O)c3C2=O)CC1 [Example 233, N-(4-Cyanobenzyl)-6-((1-(ethylsulfonyl)cyclopropyl)methyl)-1-(2-hydroxy-2-methylpropyl)-7-oxo-4,5,6,7-tetrahydro-1H-pyrazolo[3,4-c]pyridine-3-carboxamide]	7.02	8.70	–
Cn1nc(C(=O)NCc2ccc(C#N)cc2)c2c1C(=O)N(CC1(S(=O)(=O)C(C)(C)CNC(=O)C(C)(C)N)CC1)CC2 [Example 77, 6-((1-((1-(2-Amino-2-methylpropanamido)-2-methylpropan-2-yl)sulfonyl)cyclopropyl)methyl)-N-(4-cyanobenzyl)-1-methyl-7-oxo-4,5,6,7-tetrahydro-1H-pyrazolo[3,4-c]pyridine-3-carboxamide]	6.94	7.92	–
Cn1nc(C(=O)NCc2ccc(C#N)cc2F)c2c1C(=O)N(CC1(S(=O)(=O)C3CC3)CC1)CC2 [Example 13, N-(4-Cyano-2-fluorobenzyl)-6-((1-(cyclopropylsulfonyl)cyclopropyl)methyl)-1-methyl-7-oxo-4,5,6,7-tetrahydro-1H-pyrazolo[3,4-c]pyridine-3-carboxamide]	6.99	8.22	–
Cn1nc(C(=O)NCc2ccc(C#N)cc2)c2c1C(=O)N(CC1(S(=O)(=O)C3CCOCC3)CC1)CC2 [Example 169, N-(4-Cyanobenzyl)-1-methyl-7-oxo-6-((1-((tetrahydro-2H-pyran-4-yl)sulfonyl)cyclopropyl)methyl)-4,5,6,7-tetrahydro-1H-pyrazolo[3,4-c]pyridine-3-carboxamide]	6.70	7.85	–
COc1ncccc1NS(=O)(=O)C1(CN2CCc3c(C(=O)NCc4ccc(C#N)cc4)nn(C)c3C2=O)CC1 [Example 162, N-(4-Cyanobenzyl)-6-((1-(N-(2-methoxypyridin-3-yl)sulfamoyl)cyclopropyl)methyl)-1-methyl-7-oxo-4,5,6,7-tetrahydro-1H-pyrazolo[3,4-c]pyridine-3-carboxamide]	7.52	9.00	–
Cc1cccnc1NS(=O)(=O)C1(CN2CCc3c(C(=O)NCc4ccc(C#N)cc4)nn(C)c3C2=O)CC1 [Example 164, N-(4-Cyanobenzyl)-1-methyl-6-((1-(N-(3-methylpyridin-2-yl)sulfamoyl)cyclopropyl)methyl)-7-oxo-4,5,6,7-tetrahydro-1H-pyrazolo[3,4-c]pyridine-3-carboxamide]	6.80	8.22	–
Cn1nc(C(=O)NCc2ccc(C#N)cc2)c2c1C(=O)N(CC1(S(=O)(=O)C3(CO)COC3)CC1)CC2 [Example 173, N-(4-Cyanobenzyl)-6-((1-((3-(hydroxymethyl)oxetan-3-yl)sulfonyl)cyclopropyl)methyl)-1-methyl-7-oxo-4,5,6,7-tetrahydro-1H-pyrazolo[3,4-c]pyridine-3-carboxamide]	7.13	8.52	–
CS(=O)(=O)C1(CN2CCc3c(C(=O)NCc4ccc(C#N)cc4)nn(CC4(CO)CC4)c3C2=O)CC1 [Example 48, N-(4-Cyanobenzyl)-1-((1-(hydroxymethyl)cyclopropyl)methyl)-6-((1-(methylsulfonyl)cyclopropyl)methyl)-7-oxo-4,5,6,7-tetrahydro-1H-pyrazolo[3,4-c]pyridine-3-carboxamide]	6.48	–	7.96
COc1ccc(C)nc1NS(=O)(=O)C1(CN2CCc3c(C(=O)NCc4ccc(C#N)cc4)nn(C)c3C2=O)CC1 [Example 160, N-(4-Cyanobenzyl)-6-((1-(N-(3-methoxy-6-methylpyridin-2-yl)sulfamoyl)cyclopropyl)methyl)-1-methyl-7-oxo-4,5,6,7-tetrahydro-1H-pyrazolo[3,4-c]pyridine-3-carboxamide]	6.93	8.22	–
Cn1nc(C(=O)NCc2ccc(C#N)cc2)c2c1C(=O)N(CC1(S(=O)(=O)C(C)(C)CN3CC4(COC4)C3)CC1)CC2 [Example 67, N-(4-Cyanobenzyl)-1-methyl-6-((1-((2-methyl-1-(2-oxa-6-azaspiro[3.3]heptan-6-yl)propan-2-yl)sulfonyl)cyclopropyl)methyl)-7-oxo-4,5,6,7-tetrahydro-1H-pyrazolo[3,4-c]pyridine-3-carboxamide]	7.09	8.70	–
CN(C(CO)CO)S(=O)(=O)C1(CN2CCc3c(C(=O)NCc4ccc(C#N)cc4)nn(C)c3C2=O)CC1 [Example 147, N-(4-Cyanobenzyl)-6-((1-(N-(1,3-dihydroxypropan-2-yl)-N-methylsulfamoyl)cyclopropyl)methyl)-1-methyl-7-oxo-4,5,6,7-tetrahydro-1H-pyrazolo[3,4-c]pyridine-3-carboxamide]	6.22	7.52	–
C[C@@H](NC(=O)c1nn(C)c2c1CCN(CC1(S(=O)(=O)C3CC3)CC1)C2=O)c1ccc(C#N)cc1 [Example 17, (R)-N-(1-(4-Cyanophenyl)ethyl)-6-((1-(cyclopropylsulfonyl)cyclopropyl)methyl)-1-methyl-7-oxo-4,5,6,7-tetrahydro-1H-pyrazolo[3,4-c]pyridine-3-carboxamide]	< 5.00	4.77	–
Cn1nc(C(=O)NCc2ccc(C#N)cc2)c2c1C(=O)N(CC1(S(=O)(=O)C(C)(C)CNCCO)CC1)CC2 [Example 69, N-(4-Cyanobenzyl)-6-((1-((1-((2-hydroxyethyl)amino)-2-methylpropan-2-yl)sulfonyl)cyclopropyl)methyl)-1-methyl-7-ox0-4,5,6,7-tetrahydro-1H-pyrazolo[3,4-c]pyridine-3-carboxamide]	7.24	9.00	–
CN(CCO)S(=O)(=O)C1(CN2CCc3c(C(=O)NCc4ccc(Cl)cc4)nn(C)c3C2=O)CC1 [Example 144, N-(4-Chlorobenzyl)-6-((1-(N-(2-hydroxyethyl)-N-methylsulfamoyl)cyclopropyl)methyl)-1-methyl-7-oxo-4,5,6,7-tetrahydro-1H-pyrazolo[3,4-c]pyridine-3-carboxamide]	7.36	8.40	–
CO[C@@H]1CCN(CC(C)(C)S(=O)(=O)C2(CN3CCc4c(C(=O)NCc5ccc(C#N)cc5)nn(C)c4C3=O)CC2)C1 [Example 62, (R)-N-(4-cyanobenzyl)-6-((1-((1-(3-methoxypyrrolidin-1-yl)-2-methylpropan-2-yl)sulfonyl)cyclopropyl)methyl)-1-methyl-7-oxo-4,5,6,7-tetrahydro-1H-pyrazolo[3,4-c]pyridine-3-carboxamide]	6.87	8.40	–
